# Test results reported in patent US20240057603A1, “ISOCYCLOSERAM FORMULATION” (SYNGENTA CROP PROTECTION AG, priority 2020, published 2024).
# Experiment: physchem
# Conditions: 20 °C
smiles,measurement,value
CCN1OCC(NC(=O)c2ccc(C3=NOC(c4cc(Cl)c(F)c(Cl)c4)(C(F)(F)F)C3)cc2C)C1=O (stereo not shown) [Isocycloseram],solubility,< 5 µg/mL
